Test results taken from a compilation of properties of binary mixtures (doi:10.1016/s1004-9541(08)60072-5).

Assay: xn = mol fraction of the nth substance listed
Conditions: 101 kPa

CN(C)C=O + CCCC[n+]1ccn(C)c1.F[P-](F)(F)(F)(F)F
x1 = 1
Conditions | viscosity [mPa·s]
293.15 K | 0.91
298.15 K | 0.87
308.15 K | 0.78
313.15 K | 0.75
318.15 K | 0.72

CCCC[n+]1ccn(C)c1.F[P-](F)(F)(F)(F)F + CN(C)C=O
viscosity [mPa·s]
Conditions | x2 = 0 | x2 = 0.1002 | x2 = 0.2 | x2 = 0.3002 | x2 = 0.3999 | x2 = 0.5 | x2 = 0.6 | x2 = 0.7 | x2 = 0.7999 | x2 = 0.8999
293.15 K | 265 | 151.1 | 94.6 | 59.6 | – | 23.41 | 12.37 | 6.86 | 3.71 | 1.9
298.15 K | 205.6 | 114.5 | 73.4 | 47.4 | 32.09 | 19.44 | 10.57 | 6.02 | 3.35 | 1.77
303.15 K | 165.7 | 88.2 | 58 | 38.1 | 26.34 | 16.3 | 9.11 | 5.32 | 3.03 | 1.62
308.15 K | 133.9 | 68.8 | 45.9 | – | 21.74 | 13.74 | – | – | 2.73 | 1.5
313.15 K | 110.8 | 54.9 | 37.4 | 25.68 | 18.3 | 11.82 | 6.94 | 4.22 | 2.51 | 1.4
318.15 K | – | 44.6 | – | 21.55 | 15.57 | 10.24 | – | 3.82 | 2.3 | 1.31
